Measured values taken from the kinase profiling compilation of Christmann-Franck et al. (2016).

Tests used:
Assay in all cases: KINOMEscan competition binding
Details in all cases: compound 10.0 µM
NTRK2 (human) = NTRK2 (human) (UniProt Q16620)
CAMKK1 (human) = CAMKK1 (human) (UniProt Q8N5S9)
STK11 (human) = STK11 (human) (UniProt Q15831)
EPHA1 (human) = EPHA1 (human) (UniProt P21709)
TESK1 (human) = TESK1 (human) (UniProt Q15569)
[1] = system: KIT (human), P10721 [V559D/V654A]
LTK (human) = LTK (human) (UniProt P29376)
TEC (human) = TEC (human) (UniProt P42680)
CDK9 (human) = CDK9 (human) (UniProt P50750)
IKBKB (human) = IKBKB (human) (UniProt O14920)
MAPK4 (human) = MAPK4 (human) (UniProt P31152)
MAP3K9 (human) = MAP3K9 (human) (UniProt P80192)
AURKA (human) = AURKA (human) (UniProt O14965)
FGFR2 (human) = FGFR2 (human) (UniProt P21802)
[2] = system: PIK3CA (human), P42336 [C420R]
FGR (human) = FGR (human) (UniProt P09769)
MARK2 (human) = MARK2 (human) (UniProt Q7KZI7)
RPS6KA5 KD2 (human) = RPS6KA5 KD2 (human) (UniProt O75582)
TGFBR2 (human) = TGFBR2 (human) (UniProt P37173)
MAP4K1 (human) = MAP4K1 (human) (UniProt Q92918)
FLT1 (human) = FLT1 (human) (UniProt P17948)
CDKL3 (human) = CDKL3 (human) (UniProt Q8IVW4)
CDK19 (human) = CDK19 (human) (UniProt Q9BWU1)
[3] = system: PIK3CA (human), P42336 [H1047Y]
[4] = system: KIT (human), P10721 [V559D/T670I]
ULK3 (human) = ULK3 (human) (UniProt Q6PHR2)
RPS6KA1 KD1 (human) = RPS6KA1 KD1 (human) (UniProt Q15418)
CDKL2 (human) = CDKL2 (human) (UniProt Q92772)
SIK2 (human) = SIK2 (human) (UniProt Q9H0K1)
AURKB (human) = AURKB (human) (UniProt Q96GD4)
RPS6KA1 KD2 (human) = RPS6KA1 KD2 (human) (UniProt Q15418)
NEK1 (human) = NEK1 (human) (UniProt Q96PY6)
LIMK1 (human) = LIMK1 (human) (UniProt P53667)
[5] = system: ABL1 (human), P00519 [E255K]
INSRR (human) = INSRR (human) (UniProt P14616)
PRKD1 (human) = PRKD1 (human) (UniProt Q15139)
[6] = system: FGFR3 (human), P22607 [G697C]
IRAK3 (human) = IRAK3 (human) (UniProt Q9Y616)
MAK (human) = MAK (human) (UniProt P20794)
[7] = system: FLT3 (human), P36888 [N841I]
RIOK3 (human) = RIOK3 (human) (UniProt O14730)

Sequence of PIK3CA (human), P42336 [C420R] (P42336 whole entry C420R, looked up): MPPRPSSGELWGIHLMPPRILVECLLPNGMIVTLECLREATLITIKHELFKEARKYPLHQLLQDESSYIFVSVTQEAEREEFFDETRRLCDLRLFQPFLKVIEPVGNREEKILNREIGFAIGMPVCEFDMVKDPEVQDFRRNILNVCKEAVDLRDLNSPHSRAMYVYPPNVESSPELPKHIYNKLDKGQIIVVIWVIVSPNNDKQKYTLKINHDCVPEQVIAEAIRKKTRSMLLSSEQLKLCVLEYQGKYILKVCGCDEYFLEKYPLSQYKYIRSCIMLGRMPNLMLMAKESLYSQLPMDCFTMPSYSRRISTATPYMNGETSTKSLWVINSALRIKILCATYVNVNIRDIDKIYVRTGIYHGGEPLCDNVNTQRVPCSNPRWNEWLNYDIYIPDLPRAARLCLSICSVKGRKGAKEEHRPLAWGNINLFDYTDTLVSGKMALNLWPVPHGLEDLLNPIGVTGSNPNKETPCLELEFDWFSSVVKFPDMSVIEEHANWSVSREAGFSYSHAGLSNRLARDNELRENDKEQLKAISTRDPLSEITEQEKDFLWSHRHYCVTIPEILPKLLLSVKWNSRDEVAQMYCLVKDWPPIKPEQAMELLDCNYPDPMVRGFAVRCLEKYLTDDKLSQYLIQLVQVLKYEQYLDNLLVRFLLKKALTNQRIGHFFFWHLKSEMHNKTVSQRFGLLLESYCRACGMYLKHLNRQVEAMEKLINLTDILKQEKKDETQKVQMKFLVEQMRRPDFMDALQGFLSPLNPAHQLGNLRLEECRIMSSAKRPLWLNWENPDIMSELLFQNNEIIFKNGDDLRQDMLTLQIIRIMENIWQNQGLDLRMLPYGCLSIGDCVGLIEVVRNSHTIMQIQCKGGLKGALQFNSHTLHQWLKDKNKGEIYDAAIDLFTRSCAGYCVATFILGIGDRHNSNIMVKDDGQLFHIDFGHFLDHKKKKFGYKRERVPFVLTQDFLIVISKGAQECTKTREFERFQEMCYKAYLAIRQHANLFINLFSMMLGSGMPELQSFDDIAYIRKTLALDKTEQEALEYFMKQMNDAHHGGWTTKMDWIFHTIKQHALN
Sequence of FGFR3 (human), P22607 [G697C] (P22607 whole entry G697C, looked up): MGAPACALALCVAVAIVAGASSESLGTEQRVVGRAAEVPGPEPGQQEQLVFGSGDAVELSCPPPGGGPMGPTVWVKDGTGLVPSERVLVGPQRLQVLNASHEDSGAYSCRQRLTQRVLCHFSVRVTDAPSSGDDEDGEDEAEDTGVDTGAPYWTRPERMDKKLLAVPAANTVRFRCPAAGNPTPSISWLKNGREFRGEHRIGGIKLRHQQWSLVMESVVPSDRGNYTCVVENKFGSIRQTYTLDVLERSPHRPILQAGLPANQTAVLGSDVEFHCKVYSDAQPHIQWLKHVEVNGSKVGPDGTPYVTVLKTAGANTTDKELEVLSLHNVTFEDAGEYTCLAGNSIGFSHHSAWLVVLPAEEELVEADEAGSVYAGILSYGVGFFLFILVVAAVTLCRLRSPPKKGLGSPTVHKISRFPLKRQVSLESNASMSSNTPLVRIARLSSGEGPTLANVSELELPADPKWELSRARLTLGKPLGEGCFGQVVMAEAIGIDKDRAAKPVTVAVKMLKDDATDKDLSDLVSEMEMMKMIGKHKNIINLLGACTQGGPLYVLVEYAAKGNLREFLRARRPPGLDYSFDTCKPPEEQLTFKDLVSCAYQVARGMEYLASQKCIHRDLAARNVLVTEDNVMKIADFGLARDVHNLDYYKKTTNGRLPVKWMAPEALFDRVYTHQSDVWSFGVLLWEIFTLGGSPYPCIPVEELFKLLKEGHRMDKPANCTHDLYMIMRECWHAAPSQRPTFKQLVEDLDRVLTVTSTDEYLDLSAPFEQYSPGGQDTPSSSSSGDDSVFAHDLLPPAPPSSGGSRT
Sequence of CDK19 (human) (Q9BWU1 whole entry, looked up): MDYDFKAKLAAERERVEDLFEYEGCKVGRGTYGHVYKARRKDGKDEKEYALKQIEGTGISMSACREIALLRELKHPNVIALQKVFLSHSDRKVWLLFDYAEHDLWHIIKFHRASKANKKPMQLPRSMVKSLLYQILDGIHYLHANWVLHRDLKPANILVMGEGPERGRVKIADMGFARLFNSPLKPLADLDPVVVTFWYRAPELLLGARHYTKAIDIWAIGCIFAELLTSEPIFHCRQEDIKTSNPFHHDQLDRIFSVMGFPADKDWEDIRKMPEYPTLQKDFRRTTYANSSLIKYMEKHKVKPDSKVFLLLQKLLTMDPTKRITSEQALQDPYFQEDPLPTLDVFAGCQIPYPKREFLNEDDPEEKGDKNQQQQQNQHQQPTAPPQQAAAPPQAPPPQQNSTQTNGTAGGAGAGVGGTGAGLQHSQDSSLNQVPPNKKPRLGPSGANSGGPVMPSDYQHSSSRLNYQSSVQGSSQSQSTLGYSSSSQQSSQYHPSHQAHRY
Sequence of EPHA1 (human) (P21709 whole entry, looked up): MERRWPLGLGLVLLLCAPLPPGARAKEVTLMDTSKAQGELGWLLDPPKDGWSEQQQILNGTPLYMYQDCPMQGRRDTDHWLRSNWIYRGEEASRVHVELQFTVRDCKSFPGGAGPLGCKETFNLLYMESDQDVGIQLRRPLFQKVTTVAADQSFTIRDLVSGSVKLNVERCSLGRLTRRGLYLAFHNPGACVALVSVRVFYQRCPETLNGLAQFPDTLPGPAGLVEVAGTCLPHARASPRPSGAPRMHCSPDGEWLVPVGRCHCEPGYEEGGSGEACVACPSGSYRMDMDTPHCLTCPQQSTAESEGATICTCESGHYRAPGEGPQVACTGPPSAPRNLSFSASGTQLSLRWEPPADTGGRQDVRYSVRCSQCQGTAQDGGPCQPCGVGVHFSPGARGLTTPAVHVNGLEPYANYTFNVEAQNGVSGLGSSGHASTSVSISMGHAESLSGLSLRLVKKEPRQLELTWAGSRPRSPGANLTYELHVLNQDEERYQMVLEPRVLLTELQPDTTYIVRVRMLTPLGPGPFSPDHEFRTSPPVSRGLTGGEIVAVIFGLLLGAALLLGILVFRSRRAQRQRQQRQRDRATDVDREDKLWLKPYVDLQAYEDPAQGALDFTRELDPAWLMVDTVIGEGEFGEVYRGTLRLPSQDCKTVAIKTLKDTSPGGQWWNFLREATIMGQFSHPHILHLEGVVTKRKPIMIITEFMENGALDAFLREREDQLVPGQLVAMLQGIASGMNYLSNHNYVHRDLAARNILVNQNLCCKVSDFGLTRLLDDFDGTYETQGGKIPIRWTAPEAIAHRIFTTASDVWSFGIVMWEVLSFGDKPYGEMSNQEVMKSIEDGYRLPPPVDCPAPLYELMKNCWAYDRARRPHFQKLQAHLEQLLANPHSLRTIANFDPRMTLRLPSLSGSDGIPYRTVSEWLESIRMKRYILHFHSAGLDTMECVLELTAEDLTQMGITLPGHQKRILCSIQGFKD
Sequence of AURKB (human) (Q96GD4 whole entry, looked up): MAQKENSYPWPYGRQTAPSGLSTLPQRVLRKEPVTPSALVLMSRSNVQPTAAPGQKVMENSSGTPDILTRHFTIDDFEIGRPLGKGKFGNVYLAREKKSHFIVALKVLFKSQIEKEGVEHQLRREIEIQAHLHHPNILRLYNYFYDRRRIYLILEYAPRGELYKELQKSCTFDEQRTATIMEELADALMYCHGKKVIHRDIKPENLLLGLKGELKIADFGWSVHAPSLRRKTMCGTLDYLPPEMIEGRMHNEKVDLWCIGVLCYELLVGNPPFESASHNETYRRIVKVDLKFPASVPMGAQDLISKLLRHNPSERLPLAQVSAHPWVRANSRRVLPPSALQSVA
Sequence of KIT (human), P10721 [V559D/V654A] (P10721 whole entry V559D/V654A, looked up): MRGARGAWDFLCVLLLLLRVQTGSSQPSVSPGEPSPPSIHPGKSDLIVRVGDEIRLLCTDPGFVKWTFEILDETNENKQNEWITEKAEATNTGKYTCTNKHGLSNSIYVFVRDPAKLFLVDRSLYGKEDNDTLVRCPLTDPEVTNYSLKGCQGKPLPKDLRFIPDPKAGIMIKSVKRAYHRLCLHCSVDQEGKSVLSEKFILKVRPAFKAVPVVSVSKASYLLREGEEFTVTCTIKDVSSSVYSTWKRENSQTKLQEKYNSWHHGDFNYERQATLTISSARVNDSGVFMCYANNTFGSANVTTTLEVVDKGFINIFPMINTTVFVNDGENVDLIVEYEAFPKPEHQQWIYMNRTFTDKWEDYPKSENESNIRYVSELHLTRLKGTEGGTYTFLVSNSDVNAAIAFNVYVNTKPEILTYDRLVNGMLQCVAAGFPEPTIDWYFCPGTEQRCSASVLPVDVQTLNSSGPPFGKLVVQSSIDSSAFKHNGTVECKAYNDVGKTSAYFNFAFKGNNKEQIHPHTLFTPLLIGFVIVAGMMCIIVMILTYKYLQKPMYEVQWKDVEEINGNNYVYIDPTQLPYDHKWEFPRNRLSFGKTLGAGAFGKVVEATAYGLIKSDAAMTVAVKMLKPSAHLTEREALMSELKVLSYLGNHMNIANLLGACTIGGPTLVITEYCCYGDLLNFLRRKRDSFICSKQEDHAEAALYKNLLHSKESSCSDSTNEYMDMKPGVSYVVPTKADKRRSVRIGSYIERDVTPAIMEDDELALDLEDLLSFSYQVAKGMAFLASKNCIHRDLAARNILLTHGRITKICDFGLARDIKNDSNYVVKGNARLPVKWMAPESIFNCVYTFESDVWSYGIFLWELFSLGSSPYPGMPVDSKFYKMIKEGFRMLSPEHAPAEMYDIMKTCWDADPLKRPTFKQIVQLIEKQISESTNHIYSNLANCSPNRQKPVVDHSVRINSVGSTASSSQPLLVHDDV
Sequence of AURKA (human) (O14965 whole entry, looked up): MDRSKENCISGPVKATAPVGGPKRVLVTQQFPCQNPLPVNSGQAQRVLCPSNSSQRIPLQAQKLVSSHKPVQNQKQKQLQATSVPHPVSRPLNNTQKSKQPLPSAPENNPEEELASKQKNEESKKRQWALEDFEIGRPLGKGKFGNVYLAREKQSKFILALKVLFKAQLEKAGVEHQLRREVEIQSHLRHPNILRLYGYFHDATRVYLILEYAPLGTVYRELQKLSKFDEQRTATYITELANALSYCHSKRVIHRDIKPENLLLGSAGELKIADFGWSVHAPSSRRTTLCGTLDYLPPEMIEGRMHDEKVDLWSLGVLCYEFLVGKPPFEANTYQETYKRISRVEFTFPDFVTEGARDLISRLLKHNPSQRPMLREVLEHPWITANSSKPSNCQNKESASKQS

`Cc1cnc(-c2cnc(NCCNc3ccc(C#N)cn3)nc2-c2ccc(Cl)cc2Cl)[nH]1` was tested, and the kinase still bound, per cent of control (NTRK2 (human)) was 100%, the kinase still bound, per cent of control (CAMKK1 (human)) was 100% and the kinase still bound, per cent of control (STK11 (human)) was 100%. The kinase still bound, per cent of control (EPHA1 (human)) was 100%, the kinase still bound, per cent of control (TESK1 (human)) was 100% and the kinase still bound, per cent of control [1] was 86%. It also gave a kinase still bound, per cent of control (LTK (human)) of 100%, a kinase still bound, per cent of control (TEC (human)) of 100% and a kinase still bound, per cent of control (CDK9 (human)) of 58%. For the same molecule, the kinase still bound, per cent of control (IKBKB (human)) was 80%, the kinase still bound, per cent of control (MAPK4 (human)) was 100% and the kinase still bound, per cent of control (MAP3K9 (human)) was 55%. It also gave a kinase still bound, per cent of control (AURKA (human)) of 100%, a kinase still bound, per cent of control (FGFR2 (human)) of 98% and a kinase still bound, per cent of control [2] of 100%. It also gave a kinase still bound, per cent of control (FGR (human)) of 100%, a kinase still bound, per cent of control (MARK2 (human)) of 100% and a kinase still bound, per cent of control (RPS6KA5 KD2 (human)) of 100%. It also gave a kinase still bound, per cent of control (TGFBR2 (human)) of 100%, a kinase still bound, per cent of control (MAP4K1 (human)) of 100% and a kinase still bound, per cent of control (FLT1 (human)) of 79%. For the same molecule, the kinase still bound, per cent of control (CDKL3 (human)) was 52%, the kinase still bound, per cent of control (CDK19 (human)) was 100% and the kinase still bound, per cent of control [3] was 69%. The kinase still bound, per cent of control [4] was 91%, the kinase still bound, per cent of control (ULK3 (human)) was 100% and the kinase still bound, per cent of control (RPS6KA1 KD1 (human)) was 100%. It also gave a kinase still bound, per cent of control (CDKL2 (human)) of 3.8%, a kinase still bound, per cent of control (SIK2 (human)) of 100% and a kinase still bound, per cent of control (AURKB (human)) of 94%. It also gave a kinase still bound, per cent of control (RPS6KA1 KD2 (human)) of 91%, a kinase still bound, per cent of control (NEK1 (human)) of 79% and a kinase still bound, per cent of control (LIMK1 (human)) of 100%. For the same molecule, the kinase still bound, per cent of control [5] was 100%, the kinase still bound, per cent of control (INSRR (human)) was 100% and the kinase still bound, per cent of control (PRKD1 (human)) was 100%. For the same molecule, the kinase still bound, per cent of control [6] was 100%, the kinase still bound, per cent of control (IRAK3 (human)) was 100% and the kinase still bound, per cent of control (MAK (human)) was 80%. The kinase still bound, per cent of control [7] was 75% and the kinase still bound, per cent of control (RIOK3 (human)) was 100%.

For `O=C1Nc2cc(Br)ccc2/C1=C1/Nc2ccccc2/C1=N\O`, the kinase still bound, per cent of control (NTRK2 (human)) was 7.2%, the kinase still bound, per cent of control (CAMKK1 (human)) was 4.8% and the kinase still bound, per cent of control (STK11 (human)) was 2.7%. It also gave a kinase still bound, per cent of control (EPHA1 (human)) of 85%, a kinase still bound, per cent of control (TESK1 (human)) of 67% and a kinase still bound, per cent of control [1] of 0.9%. For the same molecule, the kinase still bound, per cent of control (LTK (human)) was 100%, the kinase still bound, per cent of control (TEC (human)) was 100% and the kinase still bound, per cent of control (CDK9 (human)) was 26%. It also gave a kinase still bound, per cent of control (IKBKB (human)) of 78%, a kinase still bound, per cent of control (MAPK4 (human)) of 100% and a kinase still bound, per cent of control (MAP3K9 (human)) of 3.4%. For the same molecule, the kinase still bound, per cent of control (AURKA (human)) was 20%, the kinase still bound, per cent of control (FGFR2 (human)) was 15% and the kinase still bound, per cent of control [2] was 100%. The kinase still bound, per cent of control (FGR (human)) was 1.4%, the kinase still bound, per cent of control (MARK2 (human)) was 19% and the kinase still bound, per cent of control (RPS6KA5 KD2 (human)) was 75%. It also gave a kinase still bound, per cent of control (TGFBR2 (human)) of 58%, a kinase still bound, per cent of control (MAP4K1 (human)) of 18% and a kinase still bound, per cent of control (FLT1 (human)) of 1.3%. It also gave a kinase still bound, per cent of control (CDKL3 (human)) of 82%, a kinase still bound, per cent of control (CDK19 (human)) of 100% and a kinase still bound, per cent of control [3] of 100%. For the same molecule, the kinase still bound, per cent of control [4] was 0%, the kinase still bound, per cent of control (ULK3 (human)) was 1.3% and the kinase still bound, per cent of control (RPS6KA1 KD1 (human)) was 3.1%. For the same molecule, the kinase still bound, per cent of control (CDKL2 (human)) was 6.1%, the kinase still bound, per cent of control (SIK2 (human)) was 8.2% and the kinase still bound, per cent of control (AURKB (human)) was 2.8%. For the same molecule, the kinase still bound, per cent of control (RPS6KA1 KD2 (human)) was 47%, the kinase still bound, per cent of control (NEK1 (human)) was 70% and the kinase still bound, per cent of control (LIMK1 (human)) was 59%. It also gave a kinase still bound, per cent of control [5] of 11%, a kinase still bound, per cent of control (INSRR (human)) of 47% and a kinase still bound, per cent of control (PRKD1 (human)) of 100%. It also gave a kinase still bound, per cent of control [6] of 14%, a kinase still bound, per cent of control (IRAK3 (human)) of 26% and a kinase still bound, per cent of control (MAK (human)) of 0.8%. It also gave a kinase still bound, per cent of control [7] of 0% and a kinase still bound, per cent of control (RIOK3 (human)) of 8.4%.
